Measured values from US8138194B2, “Fused bicyclic pyrimidine compounds as aurora kinase inhibitors” (National Health Research Institutes, priority 2008, dated 2012).
Values joined by “and” are separate entries in the source; they are usually repeats but may differ in a detail not shown here. Identical values can stand only once. Like-named read-outs stand apart in the source and are kept apart here.

How the values were obtained:
[1] = biological target: T1, GST-tAurora A (123-401aa) fusion protein (Homo sapiens, UniProt O14965); experiment: Aurora Kinase A luminescent kinase assay; format: biochemical; details: IC50 (concentration of a test compound at which activity of 50% of Aurora A is inhibited)
T1 construct: GST-tAurora A (123-401aa) fusion protein; made in house; host or cells: Sf9 insect cells (baculovirus, pBacPAK8)
T1 sequence (O14965 123-401): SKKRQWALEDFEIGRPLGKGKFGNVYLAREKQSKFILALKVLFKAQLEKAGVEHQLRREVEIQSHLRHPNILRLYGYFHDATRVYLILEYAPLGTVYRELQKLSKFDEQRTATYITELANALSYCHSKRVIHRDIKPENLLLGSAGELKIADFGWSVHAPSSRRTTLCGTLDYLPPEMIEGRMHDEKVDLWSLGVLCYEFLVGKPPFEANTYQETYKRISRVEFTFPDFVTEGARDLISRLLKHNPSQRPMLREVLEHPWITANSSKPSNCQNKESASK
Description: The Aurora A catalytic domain with an N-terminal GST tag was constructed in pBacPAK8 plasmid and expressed in sf9 cells. […] To concentrate GST-tAurora A, buffer was replaced with Tris buffer (100 mM Tris (pH 7.5), 300 mM NaCl, 1 mM EDTA, 4 mM DTT) using Amicon ultra-15 (MWCO:30K, Millipore) to 2.4 mg/ml. After the addition of equal volume of glycerol and 0.04% Triton X-100, the proteins were stored aliquoted at −80° C.
Briefly, a test compound, enzyme, substrate-tetra(LRRWSLG), DTT and ATP were dissolved in Aur buffer (50 mM Tris-HCl pH 7.4, 10 mM NaCl, 10 mM MgCl2, and 100 μg/ml BSA) individually before the assay. […] 5 μM ATP (5 μl), 1 mM DTT (5 μl) and 0.1 mM tetra(LRRWSLG) peptide substrate (5 μl) were added into the reactions of test compounds and GST-tAurora A. The reactions were incubated at 37° C. for 90 min. 50 μl of Kinase-Glo Plus Reagent (V3771, Promega) was added into the reactions, followed by the incubation at 25° C. for 20 min.

HCT-116 cells = experiment: HCT-116 cell viability MTS assay; format: cell-based; details: Homo sapiens
Description: HCT-116 cell viability was examined by the MTS assay (Promega, Madison, Wis., USA). 2000 HCT-116 cells in 100 μL McCoy's 5a medium were seeded in each well of a 96-well plate. After 96-h incubation with a test compound, the cells were incubated with 20 μL of a MTS/PMS mixture (MTS/PMS ratio: 20: 1) for 2 h at 37° C. in a humidified incubator with 5% CO2 to allow viable cells to convert the tetrazolium salt (MTS) into formazan. The amount/concentration of formazan, which indicates the number of live cells, was determined by measuring the absorbance at 490 nm using a PerkinElmer Victor2 plate reader (PerkinElmer, Shelton, Cont., USA).

HCT-116 xenografts = experiment: In vivo anticancer activity, colon tumor xenograft mice (injected with HCT-116); design: species or system nude mice; details: for average tumor size: treated mice
Description: In vivo efficacy of the compounds of this invention was assessed using colon tumor xenograft mice (injected with HCT-116), as described in Cancer Research 2004, 64, 4621-4628.
HCT-116 cells were grown as subcutaneous tumors in nude mice. When well-established HCT-116 xenografts were palpable with tumor size of ˜100 mm^3, mice were randomly assigned to three groups: a vehicle control group (10 mice), a positive control group (10 mice), and a treatment group (21 mice). Of the treated mice, ten received Compound 209 at a daily dosage of 5 mg/kg and eleven received the same compound at a daily dosage of 15 mg/kg of via IV injection through the tail veins for 5 days/week for 2 consecutive weeks (days 1-5 and 8-12). The positive control mice received VX-680 (a known anti-cancer compound) at a daily dosage of 50 mg/kg, also via IV injection through the tail veins for 5 days/week for 2 consecutive weeks (days 1-5 and 8-12).

[2] = read-out: IC50 (concentration of a test compound which causes 50% of the cell death), HCT-116, 96-h incubation, MTS
[3] = HCT-116, 96 h, read-out: IC50 (concentration of a test compound which causes 50% of the cell death), HCT-116, 96-h incubation, MTS

| IC50 [1] | SMILES | IC50 (HCT-116 cells; [2]) | further results |
| --- | --- | --- | --- |
| < 1000 nM and 45 to 400 nM | O=C(NCCN1CCOCC1)Nc1ccc(CCNc2ncnc3oc(-c4ccccc4)c(Cl)c23)cc1 [Compound 218] | 100 to 900 nM |  |
| < 1000 nM and 45 to 400 nM | Cc1oc2ncnc(NCCc3ccc(NC(=O)Nc4ccccc4)cc3)c2c1C [Compound 220] | 100 to 900 nM |  |
| < 1000 nM and 45 to 400 nM | COc1cccc(-c2cc3c(NCCc4ccc(NC(=O)Nc5ccccc5)cc4)ncnc3o2)c1 [Compound 221] | 100 to 900 nM |  |
| < 1000 nM and 45 to 400 nM | O=C(Nc1ccccc1)Nc1ccc(CCNc2ncnc3oc(-c4cccc(O)c4)cc23)cc1 [Compound 223] | 100 to 900 nM |  |
| < 1000 nM and 45 to 400 nM | O=C(Nc1ccccc1)Nc1ccc(CCNc2ncnc3oc(-c4ccccc4)c(CO)c23)cc1 [Compound 225] | 100 to 900 nM |  |
| < 1000 nM and 45 to 400 nM | Cc1c(-c2ccccc2)oc2ncnc(NCCc3ccc(NC(=O)Nc4ccccc4)cc3)c12 [Compound 226] | 100 to 900 nM |  |
| 45 to 400 nM and < 1000 nM | O=C(Nc1ccccc1)Nc1ccc(CCNc2ncnc3oc(-c4ccc(OCCN5CCOCC5)cc4)cc23)cc1 [Compound 230] | 100 to 900 nM |  |
| 45 to 400 nM and < 1000 nM | O=C(Nc1ccc(CCNc2ncnc3oc(-c4ccccc4)c(Cl)c23)cc1)Nc1cccnc1 [Compound 232] | 100 to 900 nM |  |
| < 1000 nM and 45 to 400 nM | O=C(Nc1ccccc1)Nc1ccc(CCNc2ncnc3oc(-c4ccc(OCCCl)cc4)cc23)cc1 [Compound 235] | 100 to 900 nM |  |
| < 1000 nM and 45 to 400 nM | COc1ccc(-c2oc3ncnc(NCCc4ccc(NC(=O)Nc5ccccc5)cc4)c3c2Cl)cc1 [Compound 244] | 100 to 900 nM |  |
| < 1000 nM | O=C(Nc1ccccc1)Nc1ccc(CCNc2ncnc3sc4c(c23)CCCCC4)cc1 [Compound 248] | 100 to 900 nM |  |
| 45 to 400 nM and < 1000 nM | O=C(Nc1ccccc1)Nc1ccc(CCNc2ncnc3oc(-c4ccccc4)c(C#CCCO)c23)cc1 [Compound 249] | 100 to 900 nM |  |
| 45 to 400 nM and < 1000 nM | O=C(Nc1ccccc1)Nc1ccc(CCNc2ncnc3oc(-c4ccccc4)c(-c4ccc(CO)o4)c23)cc1 [Compound 250] | 100 to 900 nM |  |
| < 1000 nM | O=C(Nc1ccccc1)Nc1ccc(CCNc2ncnc3oc(-c4ccccc4)c(CCCCO)c23)cc1 [Compound 251] | 100 to 900 nM |  |
| < 1000 nM | CN(C)Cc1cccc(NC(=O)Nc2ccc(CCNc3ncnc4oc(-c5ccccc5)c(Cl)c34)cc2)c1 [Compound 252] | 100 to 900 nM |  |
| 45 to 400 nM and < 1000 nM | CN(C)Cc1ccc(NC(=O)Nc2ccc(CCNc3ncnc4oc(-c5ccccc5)c(Cl)c34)cc2)cc1 [Compound 253] | 100 to 900 nM |  |

Second part, the molecule before the results:

| SMILES | IC50 [1] | IC50 (HCT-116 cells; [2]) | further results |
| --- | --- | --- | --- |
| CN(C)Cc1ccccc1NC(=O)Nc1ccc(CCNc2ncnc3oc(-c4ccccc4)c(Cl)c23)cc1 [Compound 209] | < 1000 nM and 45 to 400 nM | < 100 nM | tumor growth suppression (HCT-116 xenografts; 5 mg/kg daily, IV, days 1-5 and 8-12): suppressed tumor growth insignificantly; inhibition of tumor growth (HCT-116 xenografts; 15 mg/kg daily, IV, days 1-5 and 8-12): inhibition of tumor growth comparable to that of VX-680; average tumor size (HCT-116 xenografts; eleventh day (dose group not stated)): 654 mm^3; average tumor size (HCT-116 xenografts; fourth day (dose group not stated)): 381 mm^3 |
| O=C(NCCCl)Nc1ccc(CCNc2ncnc3oc(-c4ccccc4)c(Cl)c23)cc1 [Compound 217] | < 1000 nM and 45 to 400 nM |  | IC50 (HCT-116 cells; HCT-116, 96 h, read-out: IC50 (concentration of a test compound which causes 50% of the cell death)): 100 to 900 nM |
| O=C(Nc1ccccc1)Nc1ccc(CCNc2ncnc3oc(-c4ccccc4)c(-c4cccc([N+](=O)[O-])c4)c23)cc1 [Compound 219] | < 1000 nM and 45 to 400 nM | 100 to 900 nM |  |
| CCCCNC(=O)Nc1ccc(CCNc2ncnc3oc(-c4ccccc4)c(-c4ccccc4)c23)cc1 [Compound 222] | < 1000 nM and 45 to 400 nM | 100 to 900 nM |  |
| CN(C)CCOc1cccc(-c2cc3c(NCCc4ccc(NC(=O)Nc5ccccc5)cc4)ncnc3o2)c1 [Compound 224] | < 1000 nM and 45 to 400 nM |  | IC50 (HCT-116 cells; [3]): 100 to 900 nM |
| O=C(Nc1ccccc1)Nc1ccc(CCNc2ncnc3oc(-c4ccc(OCCN5CCC(CO)CC5)cc4)cc23)cc1 [Compound 236] | < 1000 nM and 45 to 400 nM | 100 to 900 nM |  |
| O=C(Nc1ccccc1)Nc1ccc(CCNc2ncnc3oc(-c4ccc(OCCCN5CCC(CO)CC5)cc4)cc23)cc1 [Compound 237] | < 1000 nM and 45 to 400 nM | 100 to 900 nM |  |
| O=C(Nc1ccccc1)Nc1ccc(CCNc2ncnc3oc(-c4ccc(OCCN5CCC(O)CC5)cc4)cc23)cc1 [Compound 239] | < 1000 nM and 45 to 400 nM | 100 to 900 nM |  |
| O=C(Nc1ccccc1)Nc1ccc(CCNc2ncnc3oc(-c4ccc(OCCCN5CCC(O)CC5)cc4)cc23)cc1 [Compound 240] | < 1000 nM and 45 to 400 nM | 100 to 900 nM |  |
| O=C(Nc1ccccc1)Nc1ccc(CCNc2ncnc3oc(-c4ccc(OCCCN5CCC[C@H]5CO)cc4)cc23)cc1 [Compound 241] | < 1000 nM and 45 to 400 nM | 100 to 900 nM |  |
| COc1ccc(-c2cc3c(NCCc4ccc(NC(=O)Nc5ccccc5CN(C)C)cc4)ncnc3o2)cc1 [Compound 245] | < 1000 nM | 100 to 900 nM |  |
| CN(C)CCCOc1ccc(-c2cc3c(NCCc4ccc(NC(=O)Nc5ccccc5)cc4)ncnc3o2)cc1 [Compound 247] | 45 to 400 nM and < 1000 nM |  | IC50 (HCT-116 cells; [3]): 100 to 900 nM |
| Cc1oc2ncnc(NCCc3cnc(NC(=O)Nc4ccccc4)s3)c2c1C [Compound 254] | 45 to 400 nM and < 1000 nM | 100 to 900 nM |  |
| O=C(Nc1ccccc1)Nc1ncc(CCNc2ncnc3oc(-c4ccccc4)cc23)s1 [Compound 255] | < 1000 nM | 100 to 900 nM |  |
| O=C(Nc1ccccc1)Nc1ncc(CCNc2ncnc3oc(-c4ccccc4)c(Cl)c23)s1 [Compound 256] | 45 to 400 nM and < 1000 nM | 100 to 900 nM |  |
| Cc1cc(Nc2cc(N3CCN(C)CC3)nc(Sc3ccc(NC(=O)C4CC4)cc3)n2)n[nH]1 [VX-680, reference compound] |  |  | inhibition of tumor growth (HCT-116 xenografts; 50 mg/kg daily, IV, days 1-5 and 8-12, positive control): inhibition of tumor growth |
